Read-outs that look alike come from different tables or passages of the source.
Legend:
p97 [1] = conditions: cited from earlier work
HCT116 cells [2] = test: Cell cycle assay, PI staining and flow cytometry; type: cell-based, human; conditions: for effect on the cell cycle: HCT116, 12 h
A549 = test: Cell proliferation assay (MTT/CCK-8), A549; conditions: Homo sapiens, A549, 48 h, read-out: IC50 A549
Protocol: (§1) Cells were treated with the tested compounds in a variety of concentrations and incubated at 37°C for 48 h before measurement. IC50 values were calculated using the percentage of growth of treated cells versus the blank control (Table 2).
(§2) The medium was supplemented with 10% fetal bovine serum (FBS) (Hyclone, SH30084.03). Cells were cultured in an incubator containing 5% CO2 at 37°C.
(§3) Cells were seeded at 3,000–4,000 cells per well in a 96-well plate to test the antiproliferative activity of target compounds. Cells were treated with the compounds or positive controls 6 h after seeding (twofold dilution, eight concentrations). […] The results were analyzed using GraphPad Prism 7.0.

K562 = test: Cell proliferation assay (MTT/CCK-8), K562; conditions: Homo sapiens, K562, 48 h, read-out: IC50 K562
Protocol: as §1, §2, §3

s180 = test: Cell proliferation assay (MTT/CCK-8), s180; conditions: Mus musculus, S-180, 48 h, read-out: IC50 s180
Protocol: (§4) Cells were treated with the tested compounds in a variety of concentrations and incubated at 37°C for 48 h before measurement. […] Furthermore, we evaluated all compounds’ potency toward the normal human cell line NCM460.
as §2, §3

p97 ATPase = p97 ATPase (Homo sapiens, UniProt P55072); test: p97 ATPase inhibition, ADP-Glo kinase assay; conditions: for IC50 of inactivation activities against p97: ADP-Glo, 20 nM p97, 20 μM ATP
Protocol: As the major indicator of p97 inhibitors, the inactivation of p97 ATPase by the tested compounds was determined using an ADP-Glo kinase assay, in which the formation of ADP represented the activity of ATPase.
His‐tagged human VCP (hVCP) cDNA was amplified by PCR and cloned into PCR‐linearized pET15 b (Merck Millipore, Burlington, MA, United States) using a CloneEZ Kit (Genscript). The pET15 b‐hVCP plasmid was transformed into Escherichia coli BL21 (Rosetta; Novagen, Madison, WI, United States), and the transformed bacteria were pre-cultured in LB medium containing kanamycin and chloramphenicol overnight at 37°C. Protein expression was induced with 1 mmol/L isopropyl‐β‐D‐thiogalactopyranoside.
Protein concentrations were first normalized using a Pierce BCA protein assay kit (Thermo Fisher), and a standard series was prepared with the BSA provided (2 mg/ml–25 μg/μL). Twenty-five microliters of each standard and unknown sample was added to a 96-well plate in triplicate, and 200 μL of working reagent was added to each well and prepared according to the manufacturer’s guidelines.
The protein solution was diluted to 20 nM of p97 with 20 μM ATP in triplicate in 5 μL of 1× Kinase Reaction Buffer A (40 mM Tris, pH 7.5, 20 mM MgCl2, 0.1 mg/mL BSA) and incubated at 37°C for 30 min. After incubation, the solutions were equilibrated to RT for 5 min, and 5 μL of ADP-Glo reagent was added to stop the reaction and consume the remaining ATP. The solution was incubated for 40 min at RT. Ten microliters of kinase detection reagent was added and incubated for 30 min. The sample’s luminescence was recorded using a multimode microplate reader (SMP7, MD). Each sample was averaged across the three measurements and plotted as mean ± standard deviation.

HepG2 = test: Cell proliferation assay (MTT/CCK-8), HepG2; conditions: Homo sapiens, HepG2, 48 h, read-out: IC50 HepG2
Protocol: as §1, §2, §3

HCT116 = test: Cell proliferation assay (MTT/CCK-8), HCT116; conditions: Homo sapiens, HCT-116, 48 h, read-out: IC50 HCT116
Protocol: as §1, §2, §3

RPMI-8226 = test: Cell proliferation assay (MTT/CCK-8), RPMI-8226; conditions: Homo sapiens, RPMI-8226, 48 h, read-out: IC50 RPMI-8226
Protocol: as §1, §2, §3

HCT116 cells [3] = test: Apoptosis assay, annexin V/PI staining and flow cytometry; conditions: 10 μM, 12 h; control cells 3.5%
Protocol: Apoptosis was measured by flow cytometry after staining with annexin V and propidium iodide (PI) in HCT116 (Figure 5).
The assay was performed as recommended by the manufacturer. Briefly, the HCT116 cells were seeded in 6-well plates (2 × 10^6 cells/well) and allowed to adhere for 4 hours. Then, each well was treated with DMSO (0.5% v/v) or compounds for 12 h. For the apoptosis experiment, at the end of treatment, the cells were washed twice with cold PBS and then harvested for staining with annexin V in binding buffer for 15 min in the dark at room temperature. The cells were washed in binding buffer and then incubated with propidium iodide. […] The samples were measured using flow cytometry (Beckman, cytoFLEX) within 4 h and analyzed using CytExpert (V 2.4.0.28).

His6-p97 = His6-p97 (Homo sapiens, UniProt P55072); test: Microscale thermophoresis (MST) binding assay with fluorescent-labeled His6-p97
Protocol: Fluorescent labeling of His6-p97 was carried out using the RED-tris-NTA labeling kit (Catalog No. MO-L011, NanoTemper Technologies) on a NanoTemper Monolith NT.115 following the manufacturer’s protocol. In brief, His6-p97 protein was diluted into 200 nM with PBST (0.05% Tween 20 in PBS), and red-NHS dye was diluted into 100 nM with PBST. Then, His6-p97 and RED-tris-NTA dye were mixed in a 1:1 volumetric ratio and incubated at room temperature for 30 min. […] Then 10 μL of compounds were mixed at different concentrations with 10 μL of dye-labeled His6-p97. Subsequently, well-mixed solutions containing compounds and dye-labeled His6-p97 were loaded into capillaries (Catalog No. MO-K025, NanoTemper Technologies), which were placed in slots 1–16 on the capillary rack. Then, MST experiments were carried out at an ambient temperature, and the instrument parameters were set to 20% LED power and medium MST power. The equilibrium dissociation constants were derived from the M.O. Affinity Analysis software using the K d model based on four independently titrated experiments per condition.

NCM460 = test: Cell proliferation assay (MTT/CCK-8), normal colon mucosal epithelial cell line NCM460; conditions: Homo sapiens, NCM460, 48 h, read-out: IC50 NCM460
Protocol: as §4, §2, §3

[4] = Myelosuppressive toxicity evaluation, peripheral blood counts of s180 mice; type: in vivo, ICR mice; conditions: day 10, 90 μmol/kg/day, vs vehicle
Protocol: To determine the effects on myelosuppression, WBC, RBC, PLT count, ALC, and ANC were performed in peripheral blood samples of s180 mice (Figure 7F) on day 10.

[5] = tested on: SQSTM1/p62, ATF4, and NF-κB in HCT116 cells; test: Western blot of p97 downstream biomarkers; conditions: DBeQ 10 μM, CB-5083 0.5 μM, 8 h treatment
Protocol: HCT116 cells were plated into 6-well plates (2 × 10^6 cells/well) when they were 70%–80% confluent. DMSO (0.5% v/v) or compounds were added, and cells were harvested after 8 h of treatment and washed three times with phosphate-buffered saline (PBS, pH 7.4). […] The secondary antibodies used were goat anti-mouse IgG (HRP, Abcam/ab6789).

p97 [6] = test: In vivo p97 expression measurement by ELISA; conditions: day 10, oral 90 μmol/kg/day
[7] = literature values of DBeQ derivatives, Figure 2, read-out: IC50 (p97 inhibitors developed by several research groups)

p97 ATPase, sequence (P55072 whole entry): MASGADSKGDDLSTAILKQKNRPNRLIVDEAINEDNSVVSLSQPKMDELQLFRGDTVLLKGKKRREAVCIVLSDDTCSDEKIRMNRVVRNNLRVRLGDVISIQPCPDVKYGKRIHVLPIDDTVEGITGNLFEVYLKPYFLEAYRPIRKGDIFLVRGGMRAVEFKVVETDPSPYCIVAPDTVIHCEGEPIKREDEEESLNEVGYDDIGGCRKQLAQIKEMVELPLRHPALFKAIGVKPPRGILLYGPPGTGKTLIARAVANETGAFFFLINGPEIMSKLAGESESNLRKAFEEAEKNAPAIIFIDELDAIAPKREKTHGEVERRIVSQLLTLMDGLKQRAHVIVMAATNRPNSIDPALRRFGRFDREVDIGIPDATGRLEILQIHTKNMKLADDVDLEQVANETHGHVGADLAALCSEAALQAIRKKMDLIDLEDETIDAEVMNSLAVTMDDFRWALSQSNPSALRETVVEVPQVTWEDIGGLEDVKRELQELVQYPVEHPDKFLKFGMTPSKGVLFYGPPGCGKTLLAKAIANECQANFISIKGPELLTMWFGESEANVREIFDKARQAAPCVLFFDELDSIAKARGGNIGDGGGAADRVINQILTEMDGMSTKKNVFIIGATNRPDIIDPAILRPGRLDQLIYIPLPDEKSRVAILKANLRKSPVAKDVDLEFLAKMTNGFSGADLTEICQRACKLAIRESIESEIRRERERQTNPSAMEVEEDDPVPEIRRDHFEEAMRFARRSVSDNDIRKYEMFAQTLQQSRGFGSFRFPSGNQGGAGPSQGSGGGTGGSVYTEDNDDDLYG
His6-p97, sequence (P55072 whole entry): as above

| Structure (SMILES) | IC50 (p97 [1]; [7]) [nM] | IC50 (A549) [µM] | IC50 (K562) [µM] | IC50 (s180) [nM] | IC50 (HepG2) [µM] | IC50 (HCT116) [µM] | IC50 (RPMI-8226) [µM] | proportion of apoptotic cells (HCT116 cells [3]) [%] | Kd (His6-p97) [nM] | IC50 (NCM460) [µM] | further results |
| --- | --- | --- | --- | --- | --- | --- | --- | --- | --- | --- | --- |
| c1ccc(CNc2nc(N3CCOc4ccccc43)nc3c2CCCC3)cc1 [ML-241] | 100 | – | – | – | – | – | – | – | – | – | – |
| O=C(NNc1ncnc2ccccc12)c1cnccn1 [Compound 4, Nʹ-(Quinazolin-4-yl)pyrazine-2-carbohydrazide] | – | > 100 | 66.7 ± 9.97 | 1040 ± 370 | > 100 | 3.48 ± 0.21 | 5.24 ± 0.45 | 8.31 | 640 ± 260 | 49.8 ± 3.25 | effect on the cell cycle (HCT116 cells [2]): cell proportion in the S phase in the compound 4-treated group was notably higher than that in the vehicle group; IC50 (p97 ATPase): 108 nM |
| c1ccc(CNc2nc(NCc3ccccc3)c3ccccc3n2)cc1 [DBeQ] | – | 11.6 ± 0.84 | 5.64 ± 1.08 | 2690 ± 820 | 7.57 ± 1.2 | 4.78 ± 0.22 | 4.29 ± 2.46 | 19.65 | 680 ± 59 | 6.44 ± 0.36 | G0/G1 phase fraction (HCT116 cells [2]; 12 h, same concentration as apoptosis measurement, vehicle 32.82%): 33.53%; percentage of cells in the S phase (HCT116 cells [2]; 12 h, vehicle 23.61%): 16.74%; percentage of cells in the G2/M phase (HCT116 cells [2]; 12 h, vehicle 43.51%): 49.30%; effect on the cell cycle (HCT116 cells [2]): arrested the cell cycle at the G2/M phase; ALC [4]: significantly reduced; ANC [4]: no significant alterations; PLT count [4]: no significant alterations; RBC [4]: no significant alterations; WBC [4]: significantly reduced; IC50 (p97 [1]; ref Chou et al., 2011, read-out: IC50 in the ATPase activity assays): < 10000 nM; autophagosome formation in the cytoplasm [5]: induced accumulation; levels of the ER stress biomarker (ATF4) [5]: increased levels; IC50 (p97 ATPase): 657 nM; p97 concentration in the serum (p97 [6]): lowered |
| Cc1cc2c(C(N)=O)cccc2n1-c1nc2c(c(NCc3ccccc3)n1)COCC2 [CB-5083, reference compound] | 11 | 0.77 ± 0.38 | 0.7 ± 0.42 | 240 ± 290 | 0.16 ± 0.03 | 0.47 ± 0.16 | 0.15 ± 0.02 | 20.42 | – | 0.078 ± 0.015 | ALC [4]: significantly lower; ANC [4]: significantly lower; WBC [4]: significantly lower; body weight change (oral 90 μmol/kg/day, 10 days): obvious weight loss effects; death of mice during the in vivo experiments (oral 90 μmol/kg/day, 10 days): death occurred on day 8; autophagosome formation in the cytoplasm [5]: induced accumulation; levels of the ER stress biomarker (ATF4) [5]: increased levels |
| COc1cccc2c(NCc3cnccn3)nc(Nc3ccc(/C=C/C(N)=O)cc3)nc12 [Compound 11b, (E)-3-(4-((8-Methoxy-4-((pyrazin-2-ylmethyl)amino)quinazolin-2-yl)amino)phenyl)acrylamide] | – | – | – | – | – | – | – | – | > 10000 | – | IC50 of inactivation activities against p97 (p97 ATPase): Inactive |
| COc1cccc2c(NNC(=O)c3nccnc3N)ncnc12 [Compound 7, 3-Amino-Nʹ-(8-methoxyquinazolin-4-yl)pyrazine-2-carbohydrazide] | – | > 100 | > 100 | 32400 ± 2570 | > 100 | > 100 | 39.8 ± 0.95 | 8.94 | – | 27.3 ± 1.62 | effect on the cell cycle (HCT116 cells [2]): arrested the cells in both G0/G1 and S phases |
| NC(=O)/C=C/c1ccc(Nc2nc(NCc3cnccn3)c3ccccc3n2)cc1 [Compound 11a, (E)-3-(4-((4-((Pyrazin-2-ylmethyl)amino)quinazolin-2-yl)amino)phenyl)acrylamide] | – | – | – | – | – | – | – | – | > 10000 | – | IC50 of inactivation activities against p97 (p97 ATPase): Inactive |
| COc1cccc2c(NNC(=O)c3cnccn3)ncnc12 [Compound 6, Nʹ-(8-Methoxyquinazolin-4-yl)pyrazine-2-carbohydrazide] | – | > 100 | > 100 | 1720 ± 690 | > 100 | 2.94 ± 0.1 | 3.61 ± 0.27 | 20.68 | – | 36.2 ± 2.89 | ALC [4]: no significant changes; ANC [4]: no significant changes; PLT count [4]: no significant changes; RBC [4]: no significant changes; WBC [4]: no significant changes; death of mice during the in vivo experiments (mouse, in vivo, po): no mice died; body weight change (oral 90 μmol/kg/day, 10 days): No obvious loss of body weight |
| Nc1nccnc1C(=O)NNc1ncnc2ccccc12 [Compound 5, 3-Amino-Nʹ-(quinazolin-4-yl)pyrazine-2-carbohydrazide] | – | 24.2 ± 5.39 | 1.79 ± 0.73 | 6900 ± 2000 | 4.53 ± 1.26 | 5.83 ± 1.03 | 0.75 ± 0.01 | 9.34 | 400 ± 150 | 24.2 ± 1.05 | IC50 (p97 ATPase): 72 nM |
| COc1cccc2c(NCc3ccccc3)nc(NCc3ccccc3)nc12 [Compound P2-B11] | 3400 | – | – | – | – | – | – | – | – | – | – |
| COc1cccc2c(NCc3ccccc3)nc(-n3c(C)cc4c(NS(C)(=O)=O)cccc43)nc12 [ML-240] | 110 | – | – | – | – | – | – | – | – | – | – |
| Cc1cc2c(NS(C)(=O)=O)cccc2n1-c1nc2c(c(NCc3ccccc3)n1)COCC2 [compound 35] | 36 | – | – | – | – | – | – | – | – | – | – |
| COc1cccc2c(NCc3cnccn3)nc(Nc3ccc(/C=C/C(=O)O)cc3)nc12 [Compound 10b, (E)-3-(4-((8-Methoxy-4-((pyrazin-2-ylmethyl)amino)quinazolin-2-yl)amino)phenyl)acrylic acid] | – | – | – | – | – | – | – | – | > 10000 | – | IC50 of inactivation activities against p97 (p97 ATPase): Inactive |
| O=C(O)/C=C/c1ccc(Nc2nc(NCc3cnccn3)c3ccccc3n2)cc1 [Compound 10a, (E)-3-(4-((4-((Pyrazin-2-ylmethyl)amino)quinazolin-2-yl)amino)phenyl)acrylic acid] | – | – | – | – | – | – | – | – | 5000 | – | IC50 of inactivation activities against p97 (p97 ATPase): Inactive |
